Our source for the IC50 values is US12187728B2 (Raze Therapeutics, Inc., priority 2015, dated 2025).

As usually defined, the IC50 is the point on the concentration scale where inhibition reaches its midpoint. Low readings indicate greater potency, high ones weaker potency.

The target of this test is T1, Human MTHFD2 (Homo sapiens, UniProt P13995).
T1 construct: residues 36-350 in Uniport ID P13995; His6 (N); made in house; host or cells: E. coli
T1 sequence (P13995 36-350): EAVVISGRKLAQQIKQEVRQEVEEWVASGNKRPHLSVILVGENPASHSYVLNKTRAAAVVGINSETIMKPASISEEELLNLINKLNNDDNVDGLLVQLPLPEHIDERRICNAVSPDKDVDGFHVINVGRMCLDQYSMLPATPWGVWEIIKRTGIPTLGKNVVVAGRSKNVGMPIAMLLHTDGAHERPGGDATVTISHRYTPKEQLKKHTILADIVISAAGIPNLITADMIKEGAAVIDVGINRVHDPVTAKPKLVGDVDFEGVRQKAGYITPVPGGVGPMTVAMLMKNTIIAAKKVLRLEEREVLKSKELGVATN
Briefly: MTHFD2 Activity Assay (dehydrogenase activity, diaphorase/resazurin coupled fluorescence). The format is biochemical. The note with it: inhibitory activity (IC50 and/or binding constant); 0.2 nM MTHFD2, 11 concentrations. The gist of the method:
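Steps: compound + 0.2 nM enzyme, 15 min, pH 8.0 Hepes buffer; add 70 μM CH2-THF, 1 mM NAD+, 100 μM resazurin, diaphorase; 30 min; quench with EDTA; read fluorescence. Data normalized to DMSO (100%) and no-enzyme (0%) wells.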
(In general: Resazurin is reduced to fluorescent resorufin, in cell work by metabolically active cells.)
Turning to `Cn1c(Nc2cccc(CCC(N)=O)n2)nc2c1c(=O)n(Cc1cc3c(Cl)cccc3[nH]1)c(=O)n2C` [Example 304, 3-(6-(1-((4-chloro-1H-indol-2-yl)methyl)-3,7-dimethyl-2,6-dioxo-2,3,6,7-tetrahydro-1H-purin-8-ylamino)pyridin-2-yl)propanamide], the IC50 is 10 to 1000 nM.
With `Cn1c(N[C@H]2C[C@H](CO)C2)nc2c1c(=O)n(Cc1cc3c(Cl)cccc3[nH]1)c(=O)n2C` [Example 305, 1-((4-chloro-1H-indol-2-yl)methyl)-8-((1R,3R)-3-(hydroxymethyl)cyclobutylamino)-3,7-dimethyl-1H-purine-2,6(3H,7H)-dione], the IC50 was in the range of 10 to 1000 nM.
`Cn1c(=O)n(Cc2ccc(Cl)c(Cl)c2)c(=O)c2c1nc(NC1CCCC(C(=O)O)C1)n2CC(N)=O` (stereo not shown) [Example 306, 3-(7-(2-amino-2-oxoethyl)-1-(3,4-dichlorobenzyl)-3-methyl-2,6-dioxo-2,3,6,7-tetrahydro-1H-purin-8-ylamino)cyclohexanecarboxylic acid]: the IC50 lay in the range of 10 to 1000 nM.
`Cn1c(=O)n(Cc2ccc(Cl)c(Cl)c2)c(=O)c2c1nc(NC1CCCC(C(=O)O)C1)n2CC(=O)O` (stereo not shown) [Example 307, 3-(7-(carboxymethyl)-1-(3,4-dichlorobenzyl)-3-methyl-2,6-dioxo-2,3,6,7-tetrahydro-1H-purin-8-ylamino)cyclohexanecarboxylic acid] gave a half-inhibitory concentration (IC50) of 1000 to 5000 nM.
As for `Cn1c(NC2CCCC(C(=O)O)C2)nc2c1c(=O)n(Cc1cc3c(Cl)cccc3[nH]1)c(=O)n2C` (stereo not shown) [Example 308, 3-(1-((4-chloro-1H-indol-2-yl)methyl)-3,7-dimethyl-2,6-dioxo-2,3,6,7-tetrahydro-1H-purin-8-ylamino)cyclohexanecarboxylic acid], the concentration for half-maximal inhibition (IC50) lay within 10 to 1000 nM.
For `Cn1c(Nc2ccnc(C3CC(C(=O)O)C3)c2)nc2c1c(=O)n(Cc1ccc(Cl)c(Cl)c1)c(=O)n2C` (stereo not shown) [Example 309, 3-(4-(1-(3,4-dichlorobenzyl)-3,7-dimethyl-2,6-dioxo-2,3,6,7-tetrahydro-1H-purin-8-ylamino)pyridin-2-yl)cyclobutanecarboxylic acid] the value was 10 to 1000 nM.
For `Cn1c(Nc2ccncc2)nc2c1c(=O)n(Cc1cc3c(F)cccc3[nH]1)c(=O)n2C` [Example 310, 1-((4-fluoro-1H-indol-2-yl)methyl)-3,7-dimethyl-8-(pyridin-4-ylamino)-1H-purine-2,6(3H,7H)-dione] the value was 10 to 1000 nM; for `Cn1c(Nc2ccncc2)nc2c1c(=O)n(Cc1[nH]c3ccccc3c1Cl)c(=O)n2C` [Example 311, 1-((3-chloro-1H-indol-2-yl)methyl)-3,7-dimethyl-8-(pyridin-4-ylamino)-1H-purine-2,6(3H,7H)-dione], 10 to 1000 nM; for `Cn1c(Nc2ccncc2)nc2c1c(=O)n(Cc1cc3ccc(Cl)cc3[nH]1)c(=O)n2C` [Example 312, 1-((6-chloro-1H-indol-2-yl)methyl)-3,7-dimethyl-8-(pyridin-4-ylamino)-1H-purine-2,6(3H,7H)-dione], 10 to 1000 nM.
For the compound `Cn1c(Nc2ccc(C(N)=O)cc2)nc2c1c(=O)n(Cc1ccc(Cl)c(Cl)c1)c(=O)n2C` [Example 313, 4-[[1-[(3,4-dichlorophenyl)methyl]-3,7-dimethyl-2,6-dioxo-purin-8-yl]amino]benzamide], the half-maximal inhibitory concentration (IC50) was 10 to 1000 nM.
`Cn1c(Nc2ccc3c(c2)C(CC(=O)O)CC3)nc2c1c(=O)n(Cc1ccc(Cl)c(Cl)c1)c(=O)n2C` (stereo not shown) [Example 314, 2-(6-((1-(3,4-dichlorobenzyl)-3,7-dimethyl-2,6-dioxo-2,3,6,7-tetrahydro-1H-purin-8-yl)amino)-2,3-dihydro-1H-inden-1-yl)acetic acid] showed a half-maximal inhibitory concentration (IC50) of 10 to 1000 nM.
On to `Cn1c(=O)n(Cc2ccc(Cl)c(Cl)c2)c(=O)c2c1nc(NC1CCCC(C(=O)O)C1)n2CCO` (stereo not shown) [Example 316, 3-(1-(3,4-dichlorobenzyl)-7-(2-hydroxyethyl)-3-methyl-2,6-dioxo-2,3,6,7-tetrahydro-1H-purin-8-ylamino)cyclohexanecarboxylic acid], for which the IC50 fell in the range of 10 to 1000 nM.
`Cn1c(=O)n(Cc2ccc(Cl)c(Cl)c2)c(=O)c2c1nc(NC1CCCC(C(=O)O)C1)n2CCC(N)=O` (stereo not shown) [Example 318, 3-(7-(3-amino-3-oxopropyl)-1-(3,4-dichlorobenzyl)-3-methyl-2,6-dioxo-2,3,6,7-tetrahydro-1H-purin-8-ylamino)cyclohexanecarboxylic acid] yielded an IC50 of 10 to 1000 nM.
The compound `Cn1c(Nc2ccnc(C3CC(C(N)=O)C3)c2)nc2c1c(=O)n(Cc1ccc(Cl)c(Cl)c1)c(=O)n2C` (stereo not shown) [Example 319, 3-(4-(1-(3,4-dichlorobenzyl)-3,7-dimethyl-2,6-dioxo-2,3,6,7-tetrahydro-1H-purin-8-ylamino)pyridin-2-yl)cyclobutanecarboxamide] had a concentration for half-maximal inhibition (IC50) of 10 to 1000 nM.
With `Cn1c(Nc2ccnc(C3CC(CO)C3)c2)nc2c1c(=O)n(Cc1ccc(Cl)c(Cl)c1)c(=O)n2C` (stereo not shown) [Example 320, 1-(3,4-dichlorobenzyl)-8-(2-(3-(hydroxymethyl)cyclobutyl)pyridin-4-ylamino)-3,7-dimethyl-1H-purine-2,6(3H,7H)-dione], the IC50 lay in the range of 10 to 1000 nM.
In the case of `Cn1c(Nc2ccc3c(c2)C(CCO)CC3)nc2c1c(=O)n(Cc1ccc(Cl)c(Cl)c1)c(=O)n2C` (stereo not shown) [Example 323, 1-(3,4-dichlorobenzyl)-8-((3-(2-hydroxyethyl)-2,3-dihydro-1H-inden-5-yl)amino)-3,7-dimethyl-1H-purine-2,6(3H,7H)-dione], the IC50 is 1000 to 5000 nM.
For `Cn1c(Nc2ccc3c(c2)CC(CO)C3)nc2c1c(=O)n(Cc1ccc(Cl)c(Cl)c1)c(=O)n2C` (stereo not shown) [Example 324, 1-(3,4-dichlorobenzyl)-8-((2-(hydroxymethyl)-2,3-dihydro-1H-inden-5-yl)amino)-3,7-dimethyl-1H-purine-2,6(3H,7H)-dione], the IC50 is 1000 to 5000 nM.
As for `Cc1ccc2cc(Cn3c(=O)c4c(nc(Nc5ccncc5)n4C)n(C)c3=O)[nH]c2c1` [Example 326, 3,7-dimethyl-1-((6-methyl-1H-indol-2-yl)methyl)-8-(pyridin-4-ylamino)-1H-purine-2,6(3H,7H)-dione], the 50% inhibitory concentration (IC50) was in the range of 10 to 1000 nM.
The figure for `Cc1cccc2[nH]c(Cn3c(=O)c4c(nc(N[C@H]5C[C@H](CO)C5)n4C)n(C)c3=O)cc12` [Example 327, 8-((1R,3R)-3-(hydroxymethyl)cyclobutylamino)-3,7-dimethyl-1-((4-methyl-1H-indol-2-yl)methyl)-1H-purine-2,6(3H,7H)-dione] is 10 to 1000 nM; for `Cc1cccc2[nH]c(Cn3c(=O)c4c(nc(Nc5ccncc5)n4C)n(C)c3=O)cc12` [Example 328, 1-((4-methyl-1H-indol-2-yl)methyl)-3,7-dimethyl-8-(pyridin-4-ylamino)-1H-purine-2,6(3H,7H)-dione] it is 10 to 1000 nM; for `CN(C)C(=O)CCc1cccc(Nc2nc3c(c(=O)n(Cc4cc5c(Cl)cccc5[nH]4)c(=O)n3C)n2C)n1` [Example 329, 3-(6-(1-((4-chloro-1H-indol-2-yl)methyl)-3,7-dimethyl-2,6-dioxo-2,3,6,7-tetrahydro-1H-purin-8-ylamino)pyridin-2-yl)-N,N-dimethylpropanamide] it is 10 to 1000 nM.
For the compound `CNC(=O)CCc1cccc(Nc2nc3c(c(=O)n(Cc4cc5c(Cl)cccc5[nH]4)c(=O)n3C)n2C)n1` [Example 330, 3-(6-(1-((4-chloro-1H-indol-2-yl)methyl)-3,7-dimethyl-2,6-dioxo-2,3,6,7-tetrahydro-1H-purin-8-ylamino)pyridin-2-yl)-N-methylpropanamide], the half-inhibitory concentration (IC50) is 10 to 1000 nM.
`Cn1c(Nc2ccc(C(=O)O)cc2)nc2c1c(=O)n(Cc1cc3c(Cl)cccc3[nH]1)c(=O)n2C` [Example 331, 4-[[1-[(4-chloro-1H-indol-2-yl)methyl]-3,7-dimethyl-2,6-dioxo-purin-8-yl]amino]benzoic acid] yielded a half-maximal inhibitory concentration (IC50) of 10 to 1000 nM.
For `COc1cc(Nc2nc3c(c(=O)n(Cc4cc5c(Cl)cccc5[nH]4)c(=O)n3C)n2C)ccn1` [Example 333, 1-[(4-chloro-1H-indol-2-yl)methyl]-8-[(2-methoxy-4-pyridyl)amino]-3,7-dimethyl-purine-2,6-dione] the value was 10 to 1000 nM; for `Cn1c(Nc2ccnc(C(F)(F)F)c2)nc2c1c(=O)n(Cc1cc3c(Cl)cccc3[nH]1)c(=O)n2C` [Example 334, 1-[(4-chloro-1H-indol-2-yl)methyl]-8-[(2-trifluoromethyl-4-pyridyl)amino]-3,7-dimethyl-purine-2,6-dione], 1000 to 5000 nM; for `Cn1c(NS(C)(=O)=O)nc2c1c(=O)n(Cc1cc3c(Cl)cccc3[nH]1)c(=O)n2C` [Example 336, N-[1-[(4-chloro-1H-indol-2-yl)methyl]-3,7-dimethyl-2,6-dioxo-purin-8-yl]methanesulfonamide], 10 to 1000 nM.
For the compound `Cn1c(Nc2cccc(CC(=O)O)c2)nc2c1c(=O)n(Cc1cc3c(Cl)cccc3[nH]1)c(=O)n2C` [Example 339, 2-(3-((1-((4-chloro-1H-indol-2-yl)methyl)-3,7-dimethyl-2,6-dioxo-2,3,6,7-tetrahydro-1H-purin-8-yl)amino)phenyl)acetic acid], the IC50 lay in the range of 10 to 1000 nM.
For `Cc1c(Cn2c(=O)c3c(nc(Nc4ccncc4)n3C)n(C)c2=O)[nH]c2ccccc12` [Example 340, 3,7-dimethyl-1-((3-methyl-1H-indol-2-yl)methyl)-8-(pyridin-4-ylamino)-1H-purine-2,6(3H,7H)-dione], the IC50 lay within 10 to 1000 nM.
